Data on four molecules can be found in ChEMBL document CHEMBL2150878, “Discovery of an Orally Available, Brain Penetrant BACE1 Inhibitor that Affords Robust CNS Aβ Reduction” (ACS Med Chem Lett, 2012).

Broadly, the AUC is concentration integrated over time. Higher therefore signals more exposure. By Papp is commonly meant the rate of passage across a membrane or cell layer, normalised by area and donor concentration. As a reminder, the logD is the decadic logarithm of the distribution of all forms, ionised or not, between an organic phase and buffer at a given pH. The solubility is the dissolved amount per volume that the medium holds. Read a low solubility as a poorly soluble substance. As a reminder, the pKa is the pH at which an ionisable group is half protonated. Low values mean a stronger acid or weaker base, high ones a weaker acid or stronger base.

Series [1] deals with Rattus norvegicus. Briefly: AUC (0 to 6 hrs) in rat at 10 mg/kg, po. Details: time < 6 hr, dose 10 mg/kg, route oral. The conditions noted are these: in vivo. The format is ADME, organism-based, Plasma.
Another series relates to Caco-2. Briefly: Apparent permeability of the compound in human Caco2 cells. It is filed as ADME, cell-based. On the technique in general: Caco-2 monolayers are a common model of the intestinal barrier.
A short description of series [2]: Intrinsic clearance in rat hepatocytes assessed per 10^6 cells at 1 uM up to 180 mins. It is filed as ADME, cell-based, Hepatocyte. The conditions noted are these: read-out: CLH.
The nature of series [3]: Lipophilicity, log D of the compound. It is filed as physicochemical. The conditions noted are these: octanol/water.
Series [4] can be described thus: Intrinsic clearance in human hepatocytes assessed per 10^6 cells at 1 uM up to 180 mins. The conditions noted are these: read-out: CLH. The format is ADME, cell-based, Hepatocyte.
Series [5] has as its system Rattus norvegicus. Briefly: Oral bioavailability in Sprague-Dawley rat at 3 mg/kg. The conditions noted are these: in vivo. The format is ADME, organism-based.
A short description of series [6]: Solubility of the compound at pH 7.4. It is filed as physicochemical. The conditions noted are these: buffer.
The nature of series [7]: Dissociation constant, pKa of the compound. The format is physicochemical.
In a further series the test system is Nucleic Acid. Nature of the series: Ratio of drug level in brain to plasma in Sprague-Dawley rat at 3 mg/kg, po after 3 hrs. Details: dose 3 mg/kg, route oral. The format is ADME, organism-based.
For series [8], the system named is Rattus norvegicus. Nature of the series: Terminal half life in Sprague-Dawley rat at 3 mg/kg, iv. More on the design: dose 3 mg/kg, route intravenous. It is filed as ADME, organism-based. The conditions noted are these: in vivo.

Converted amounts (≈) assume the structure as drawn.

`COc1cccc(-c2cccc([C@]3(C)CC(=O)N(C)C(=N)N3)c2)c1` came in with an AUC in the series with Rattus norvegicus [1] of under 1 µM·h.

The molecule `CN1C(=N)N[C@](C)(c2cccc(-c3cccc(C#N)c3)c2)CC1=O` had an exposure (AUC) in the series with Rattus norvegicus [1] of 8.6 µM·h.

Consider `CN1C(=N)N[C@](C)(c2cccc(-c3cccnc3)c2)CC1=O`, for which, in the series on Rattus norvegicus [1], the AUC is under 1 µM·h.

For `CC#Cc1cncc(-c2cc(Cl)c([C@]3(C)CC(=O)N(C)C(=N)N3)s2)c1`, the Papp in the series with Caco-2 was 15.3 ×10⁻⁶ cm/s. The hepatocyte CLint at 1 µM was determined as 4.9 µL/min/1e6 cells in series [2] and 2.7 µL/min/1e6 cells in series [4]. This molecule also returned a logD in series [3] of 1.8. The molecule further came in with a F in the series on Rattus norvegicus [5] of 69%. In series [6], this molecule gave a solubility of 200 µM (≈ 74.6 µg/mL). Besides, the pKa in series [7] worked out at 7.5. Besides, in the series on Nucleic Acid, the BPR was 3. For the same molecule, the “beta t1/2” value in the series on Rattus norvegicus [8] turned out to be 2.8 h.
